biological target: Apolipoprotein L1 (Homo sapiens, UniProt O14791); assay: Inhibition of APOL1 G1 variant in human HEK293-T-REx cells measured by Thallium assay; format: cell-based

Structure (SMILES)	IC50
O=C(NCC(O)CO)O[C@H]1C[C@H](c2c(-c3ccc(F)cc3)[nH]c3c(F)cc(F)cc32)C1 (some centres not stated)	> 1 µM
C[C@@H](O)CNC(=O)C1CC(Cc2c(-c3ccc(F)cc3)[nH]c3c(F)cc(F)cc23)C1 (some centres not stated)	> 1 µM
O=C(N[C@H]1C[C@H](O)C1)[C@H]1C[C@@H](c2c(-c3ccc(F)cc3)[nH]c3c(F)cc(F)cc32)C1	> 1 µM
NC(=O)C(CO)NC(=O)[C@H]1C[C@@H](c2c(-c3ccc(F)cc3)[nH]c3c(F)cc(F)cc32)C1 (some centres not stated)	> 1 µM
O=C(CNC(=O)[C@H]1C[C@H](c2c(-c3ccc(F)cc3)[nH]c3c(F)cc(F)cc32)C1)NC[C@@H](O)C(F)(F)F	> 1 µM
O=C(CNC(=O)[C@H]1C[C@H](c2c(-c3ccc(F)cc3)[nH]c3c(F)cc(F)cc32)C1)NCCO	> 1 µM
CNC(=O)NC[C@H]1C[C@H](c2c(-c3ccc(F)cc3)[nH]c3c(F)cc(F)cc32)C1	0.00025 µM
COCCNC(=O)CC1CC(c2c(-c3ccc(F)cc3)[nH]c3c(F)cc(F)cc23)C1 (configuration not stated)	> 1 µM
O=C(N[C@@H]1CCOC1)[C@H]1C[C@@H](c2c(-c3ccc(F)cc3)[nH]c3c(F)cc(F)cc32)C1	> 1 µM
Cn1cc(CNC(=O)C2CC(Cc3c(-c4ccc(F)cc4)[nH]c4c(F)cc(F)cc34)C2)cn1 (configuration not stated)	> 1 µM
CN1CCN(C(=O)CNCC2CC(c3c(-c4ccc(F)cc4)[nH]c4c(F)cc(F)cc34)C2)CC1 (configuration not stated)	> 1 µM
C[C@H](NCC1CC(c2c(-c3ccc(F)cc3)[nH]c3c(F)cc(F)cc23)C1)C(N)=O (some centres not stated)	> 1 µM
NC(=O)CNC(=O)O[C@H]1C[C@H](c2c(-c3ccc(F)cc3)[nH]c3c(F)cc(F)cc32)C1	< 0.25 µM
O=C(NC[C@H]1C[C@H](c2c(-c3ccc(F)cc3)[nH]c3c(F)cc(F)cc32)C1)N[C@H]1C[C@H](O)C1	> 1 µM
COC1CC1NC(=O)O[C@H]1C[C@H](c2c(-c3ccc(F)cc3)[nH]c3c(F)cc(F)cc32)C1 (some centres not stated)	> 1 µM
O=C(NC[C@H]1C[C@H](c2c(-c3ccc(F)cc3)[nH]c3c(F)cc(F)cc32)C1)NC(CO)C(F)(F)F (some centres not stated)	> 1 µM
O=C1NCCCC1NC(=O)[C@H]1C[C@@H](c2c(-c3ccc(F)cc3)[nH]c3c(F)cc(F)cc32)C1 (some centres not stated)	> 1 µM
O=C(NC[C@H]1C[C@H](c2c(-c3ccc(F)cc3)[nH]c3c(F)cc(F)cc32)C1)NC1(CO)CCOC1 (some centres not stated)	> 1 µM
CC1(CNC(=O)C2CC(Cc3c(-c4ccc(F)cc4)[nH]c4c(F)cc(F)cc34)C2)CCOC1 (configuration not stated)	> 1 µM
Cn1nccc1NC(=O)[C@H]1C[C@@H](c2c(-c3ccc(F)cc3)[nH]c3c(F)cc(F)cc32)C1	> 1 µM
O=C(NCC1(O)COC1)NC[C@H]1C[C@H](c2c(-c3ccc(F)cc3)[nH]c3c(F)cc(F)cc32)C1	> 1 µM

Structure (SMILES)	IC50
CN(C)C(=O)CNCC1CC(c2c(-c3ccc(F)cc3)[nH]c3c(F)cc(F)cc23)C1 (configuration not stated)	0.00025 µM
CCNC(=O)N1CC(c2c(-c3ccc(F)cc3)[nH]c3c(F)cc(F)cc23)C1	0.00025 µM
CC(CO)NC(=O)O[C@H]1C[C@H](c2c(-c3ccc(F)cc3)[nH]c3c(F)cc(F)cc32)C1 (some centres not stated)	0.00025 µM
C[C@@H](O)CNC(=O)[C@H]1C[C@@H](c2c(-c3ccc(F)cc3)[nH]c3c(F)cc(F)cc32)C1	> 1 µM
O=C(NCC1CC(F)(F)C1)C1CC(Cc2c(-c3ccc(F)cc3)[nH]c3c(F)cc(F)cc23)C1 (configuration not stated)	> 1 µM
COC[C@H](C)NC(=O)O[C@H]1C[C@H](c2c(-c3ccc(F)cc3)[nH]c3c(F)cc(F)cc32)C1	> 1 µM
O=C(NC(CO)(CO)CO)O[C@H]1C[C@H](c2c(-c3ccc(F)cc3)[nH]c3c(F)cc(F)cc32)C1	< 0.25 µM
C[C@@H](O)CNC(=O)N[C@H]1C[C@H](c2c(-c3ccc(F)cc3)[nH]c3c(F)cc(F)cc32)C1	> 1 µM
CC(C)C[C@H](CO)NC(=O)C1CC(Cc2c(-c3ccc(F)cc3)[nH]c3c(F)cc(F)cc23)C1 (some centres not stated)	> 1 µM
CC(CO)(CO)NC(=O)NC[C@H]1C[C@H](c2c(-c3ccc(F)cc3)[nH]c3c(F)cc(F)cc32)C1	> 1 µM
CC1(NC(=O)C2CC(Cc3c(-c4ccc(F)cc4)[nH]c4c(F)cc(F)cc34)C2)CCOC1 (configuration not stated)	> 1 µM
NC(=O)CNC1CC(c2c(-c3ccc(F)cc3)[nH]c3c(F)cc(F)cc23)C1 (configuration not stated)	> 1 µM
O=C(NCc1cnn(CC(F)(F)F)c1)C1CC(Cc2c(-c3ccc(F)cc3)[nH]c3c(F)cc(F)cc23)C1 (configuration not stated)	> 1 µM
CNC(=O)CNC[C@H]1C[C@H](c2c(-c3ccc(F)cc3)[nH]c3c(F)cc(F)cc32)C1	< 0.25 µM
O=C(NC[C@H]1C[C@H](c2c(-c3ccc(F)cc3)[nH]c3c(F)cc(F)cc32)C1)NC1(CO)CC(F)(F)C1	> 1 µM
O=C(NCc1cocn1)C1CC(Cc2c(-c3ccc(F)cc3)[nH]c3c(F)cc(F)cc23)C1 (configuration not stated)	> 1 µM
O=C(NCC(O)C(F)F)C1CC(Cc2c(-c3ccc(F)cc3)[nH]c3c(F)cc(F)cc23)C1 (configuration not stated)	> 1 µM
O=C(NC[C@H](O)C(F)(F)F)NC[C@H]1C[C@H](c2c(-c3ccc(F)cc3)[nH]c3c(F)cc(F)cc32)C1	> 1 µM
O=C(NCC1CCNC1=O)NC[C@H]1C[C@H](c2c(-c3ccc(F)cc3)[nH]c3c(F)cc(F)cc32)C1 (some centres not stated)	> 1 µM
O=C(NC1CC(O)C1)O[C@H]1C[C@H](c2c(-c3ccc(F)cc3)[nH]c3c(F)cc(F)cc32)C1 (some centres not stated)	> 1 µM
O=C(NCC1COC1)[C@H]1C[C@@H](c2c(-c3ccc(F)cc3)[nH]c3c(F)cc(F)cc32)C1	> 1 µM

Structure (SMILES)	IC50
C[C@@H](CO)NC(=O)NC[C@H]1C[C@H](c2c(-c3ccc(F)cc3)[nH]c3c(F)cc(F)cc32)C1	> 1 µM
COC1(CNC(=O)C2CC(Cc3c(-c4ccc(F)cc4)[nH]c4c(F)cc(F)cc34)C2)CCOC1 (configuration not stated)	> 1 µM
O=C(NC1(CO)CC(F)(F)C1)C1CC(Cc2c(-c3ccc(F)cc3)[nH]c3c(F)cc(F)cc23)C1 (configuration not stated)	> 1 µM
O=C(NC1CCNC1=O)N[C@H]1C[C@H](c2c(-c3ccc(F)cc3)[nH]c3c(F)cc(F)cc32)C1 (some centres not stated)	> 1 µM
C[C@H](CO)NC(=O)CC1CC(c2c(-c3ccc(F)cc3)[nH]c3c(F)cc(F)cc23)C1 (some centres not stated)	> 1 µM
C[C@@H](O)CNC(=O)O[C@H]1C[C@H](c2c(-c3ccc(F)cc3)[nH]c3c(F)cc(F)cc32)C1	> 1 µM
C[C@@H](CO)NC(=O)CC1CC(c2c(-c3ccc(F)cc3)[nH]c3c(F)cc(F)cc23)C1 (some centres not stated)	> 1 µM
O=C(NCc1ccco1)O[C@H]1C[C@H](c2c(-c3ccc(F)cc3)[nH]c3c(F)cc(F)cc32)C1	> 1 µM
O=C(N[C@@H]1CCNC1=O)O[C@H]1C[C@H](c2c(-c3ccc(F)cc3)[nH]c3c(F)cc(F)cc32)C1	0.00025 µM
O=C(N[C@H]1CCOC1=O)C1CC(Cc2c(-c3ccc(F)cc3)[nH]c3c(F)cc(F)cc23)C1 (some centres not stated)	> 1 µM
Cc1noc(CNC(=O)C2CC(Cc3c(-c4ccc(F)cc4)[nH]c4c(F)cc(F)cc34)C2)n1 (configuration not stated)	> 1 µM
CC(O)C(C)NC(=O)O[C@H]1C[C@H](c2c(-c3ccc(F)cc3)[nH]c3c(F)cc(F)cc32)C1 (some centres not stated)	> 1 µM
O=C(N[C@H]1CCOC1)[C@H]1C[C@@H](c2c(-c3ccc(F)cc3)[nH]c3c(F)cc(F)cc32)C1	> 1 µM
CC[C@@H](CO)NC(=O)[C@H]1C[C@@H](c2c(-c3ccc(F)cc3)[nH]c3c(F)cc(F)cc32)C1	> 1 µM
NC(=O)C(CC(F)(F)F)NCC1CC(c2c(-c3ccc(F)cc3)[nH]c3c(F)cc(F)cc23)C1 (configuration not stated)	> 1 µM
CC1(C(=O)N[C@H]2CCNC2=O)CC(c2c(-c3ccc(F)cc3)[nH]c3c(F)cc(F)cc23)C1 (some centres not stated)	0.00025 µM
C[C@H](O)[C@H](CO)NC(=O)[C@H]1C[C@@H](c2c(-c3ccc(F)cc3)[nH]c3c(F)cc(F)cc32)C1	> 1 µM
O=C(NC[C@H]1C[C@H](c2c(-c3ccc(F)cc3)[nH]c3c(F)cc(F)cc32)C1)N1CCC[C@@H]1CO	> 1 µM
CNC(=O)C(C)NCC1CC(c2c(-c3ccc(F)cc3)[nH]c3c(F)cc(F)cc23)C1 (configuration not stated)	0.00025 µM
CC1(O)CC(NC(=O)C2CC(Cc3c(-c4ccc(F)cc4)[nH]c4c(F)cc(F)cc34)C2)C1 (configuration not stated)	> 1 µM
Cn1cnc(CNC(=O)C2(F)CC(c3c(-c4ccc(F)cc4)[nH]c4c(F)cc(F)cc34)C2)c1 (configuration not stated)	< 0.25 µM

Structure (SMILES)	IC50
CC(O)(CO)CNC(=O)C1CC(Cc2c(-c3ccc(F)cc3)[nH]c3c(F)cc(F)cc23)C1 (configuration not stated)	> 1 µM
CN(CC1CC(c2c(-c3ccc(F)cc3)[nH]c3c(F)cc(F)cc23)C1)C(=O)NCCO (configuration not stated)	> 1 µM
O=C(NCC1(O)CCCC1)C1CC(Cc2c(-c3ccc(F)cc3)[nH]c3c(F)cc(F)cc23)C1 (configuration not stated)	> 1 µM
C[C@H](O)CNC(=O)C1CC(Cc2c(-c3ccc(F)cc3)[nH]c3c(F)cc(F)cc23)C1 (some centres not stated)	> 1 µM
CC(C)NC(=O)CN[C@H]1C[C@H](c2c(-c3ccc(F)cc3)[nH]c3c(F)cc(F)cc32)C1	> 1 µM
CC1(C)CC(NC(=O)NC[C@H]2C[C@H](c3c(-c4ccc(F)cc4)[nH]c4c(F)cc(F)cc43)C2)C(=O)O1 (some centres not stated)	> 1 µM
O=C(N[C@H]1CCOC1)O[C@H]1C[C@H](c2c(-c3ccc(F)cc3)[nH]c3c(F)cc(F)cc32)C1	> 1 µM
CC1CC(NC(=O)NC[C@H]2C[C@H](c3c(-c4ccc(F)cc4)[nH]c4c(F)cc(F)cc43)C2)C(=O)O1 (some centres not stated)	> 1 µM
CC(C)(O)CCNC(=O)C1CC(Cc2c(-c3ccc(F)cc3)[nH]c3c(F)cc(F)cc23)C1 (configuration not stated)	> 1 µM
C[C@H](O)CNC(=O)O[C@H]1C[C@H](c2c(-c3ccc(F)cc3)[nH]c3c(F)cc(F)cc32)C1	> 1 µM
Cc1cc(CNC(=O)O[C@H]2C[C@H](c3c(-c4ccc(F)cc4)[nH]c4c(F)cc(F)cc43)C2)on1	> 1 µM
CC1(NC(=O)C2CC(Cc3c(-c4ccc(F)cc4)[nH]c4c(F)cc(F)cc34)C2)CCNC1=O (configuration not stated)	> 1 µM
O=C(N[C@H](CO)C(F)(F)F)O[C@H]1C[C@H](c2c(-c3ccc(F)cc3)[nH]c3c(F)cc(F)cc32)C1	> 1 µM
O=C(CNC[C@H]1C[C@H](c2c(-c3ccc(F)cc3)[nH]c3c(F)cc(F)cc32)C1)NC1CC1	0.00025 µM
O=C([C@H]1C[C@@H](c2c(-c3ccc(F)cc3)[nH]c3c(F)cc(F)cc32)C1)N1C[C@@H](O)[C@H](O)C1	> 1 µM
CC(C)(O)CNC(=O)C1CC(Cc2c(-c3ccc(F)cc3)[nH]c3c(F)cc(F)cc23)C1 (configuration not stated)	> 1 µM
C[C@H](NC(=O)C1CC(Cc2c(-c3ccc(F)cc3)[nH]c3c(F)cc(F)cc23)C1)C(C)(C)O (some centres not stated)	> 1 µM
NC(=O)CCNC1CC(c2c(-c3ccc(F)cc3)[nH]c3c(F)cc(F)cc23)C1 (configuration not stated)	> 1 µM
O=C(CC1CC(c2c(-c3ccc(F)cc3)[nH]c3c(F)cc(F)cc23)C1)NCCO (configuration not stated)	> 1 µM

— ChEMBL document CHEMBL5052856, “Inhibitors of apol1 and methods of using same” (2021)
